Reference: patent US11014902B2, “MYC G-quadruplex stabilizing small molecules and their use” (The United States of America, as represented by the …, priority 2015, dated 2021)
Entries after “also recorded” stand apart in the source; their conditions may differ.

Assays:
[1] = system: mutant sequence incapable of G4 formation; assay type: biochemical; conditions: concentrations up to 100 μM
[2] = system: c-MYC exon 1 transcription in CA46 cells; test: Exon specific qPCR assay, exon 1; assay type: cell-based, human; conditions: 10 μM, up to 48 hours
Description: (§1) To confirm a G4 specific mechanism of action in cells, the CA46 Burkitt's Lymphoma line was used in an exon-specific assay, as previously reported (Boddupally, et al., J Med Chem 2012, 55, 6076). For most cell lines, 85-90% of c-Myc expression is controlled by the G4 located prior to exons 1 and 2 in the promoter. Furthermore, expression predominantly occurs following exon 2, due to a thousand-fold increase in transcription from this allele (Brown, et al., J Biol Chem 2011, 286, 41018). The CA46 Burkitt's Lymphoma cell line is an exception to this trend due to the existence of a chromosome (8:14) (Pelicci, et al., Proc Natl Acad Sci USA 1986, 83, 2984) translocation between exons 1 and 2, leaving exon 1 under G4 control. As a result, c-Myc expression from exon 2 is G4 independent (FIG. 3B). This renders the overall cell line resistant to G4-mediated c-Myc inhibition at the RNA and protein level, and proliferation should be uninhibited by G4-stabilizing agents.
(§2) CA46 cells were treated with ligands of interest or DMSO control at designated time points, washed in PBS, flash frozen, and RNA isolated using the Qiagen RNeasy Kit. RNA was quantified by NanoDrop, and 0.5 μg was reverse transcribed for use in qPCR. […]

[3] = system: c-MYC exon 2 transcription in CA46 cells; test: Exon specific qPCR assay, exon 2; assay type: cell-based, human; conditions: 10 μM, up to 48 hours
Description: as §1, §2

c-Myc protein = c-Myc protein translation in myeloma cells (Western blot); assay type: cell-based, human; conditions: 10 μM, maintained over 72 hours
Description: (§3) Since two thirds of multiple myeloma cases involve deregulated c-MYC expression (Kuehl and Bergsagel, Blood 2012, 120, 2351; Shou, et al., Proc Natl Acad Sci USA 2000, 97, 228), we elected to evaluate the cell viability effects of Compound 1 in a multiple myeloma model. […] This suppression was maintained over 72 hours, which is notable given the characteristic rapid replenishment of the protein—a phenomenon that complicates targeting c-Myc at the protein level (FIG. 4C). This effect was maintained across a genetically diverse set of 4 multiple myeloma lines. We observed decreases in c-MYC translation in all lines tested, and this effect also correlated with decreases in viability (FIG. 4D).
Cell pellets/tissue were homogenized and lysed in RIPA buffer on ice for 1 h. Protein was quantitated by BCA, and equal protein was loaded onto 4-12% Bis-Tris Gels (Novex), electrophoresed at 150 V for 75 min to obtain sufficient separation, and transferred via the iBlot system (Life Technologies). Successful transfer and uniform loading was confirmed by Ponceau S staining (Thermo Scientific). Blots were blocked in 10% dry milk in TBST, incubated with primary monoclonal antibodies in 5% BSA at concentrations designated by the manufacturer, and gently rotated at 4° C. overnight. […]

[4] = system: c-MYC expression in CA46 cells; test: c-MYC expression in CA46 Burkitt's Lymphoma line; assay type: cell-based, human; conditions: CA46 line lacking G4 control
Description: as §1, with “agents. […]” for “agents.”
Cell pellets/tissue were homogenized and lysed in RIPA buffer on ice for 1 h. Protein was quantitated by BCA, and equal protein was loaded onto 4-12% Bis-Tris Gels (Novex), electrophoresed at 150 V for 75 min to obtain sufficient separation, and transferred via the iBlot system (Life Technologies). […]

[5] = system: peripheral blood mononucleocytes; test: Viability of peripheral blood mononucleocytes; assay type: cell-based; conditions: healthy volunteer cells; doses 25% higher than for cell treatments
Description: as §3

RB1, BCL2 G4s = test: Biophysical measurements of compound affinity, RB1 and BCL2 G4s; assay type: binding
KRAS, VEGF G4s = test: Biophysical measurements of compound affinity, KRAS and VEGF G4s; assay type: binding
ARD = test: Multiple myeloma cell viability; assay type: cell-based
Description: (§4) Human multiple myeloma and Burkitt's Lymphoma cell lines L363, CA46, MM-1R, KMS-11, and MM-1S were cultured and authenticated as previously described (Simmons, et al., Molecular oncology 2014, 8, 261). All plasma derived cell lines were cultured in RPMI-1640 (2 mM L-glutamine, 10% fetal bovine serum (FBS), 100 U/ml penicillin, 100 μg/ml streptomycin: Gibco) and incubated at 37° C. with 5% CO2. Viability experiments were performed in quadruplicate on 96-well plates (Costar) at designated time and dose points. MTS reagent was then directly added, incubated at 37° C. for 90 min, and absorbance of MTS formazan was read at 500 nm on an Omega 640 spectrophotometer. Percentage cell viability was normalized to the absorbance of untreated (DMSO) wells. In the case of cells harvested for their protein or RNA, pellets were flash frozen and stored at −80° C. overnight prior to use.
(§5) Additional multiple myeloma cell lines were assayed for cell viability in the presence of Compound 23, and the following IC50 values were determined.

KMS12PE = test: Multiple myeloma cell viability; assay type: cell-based; conditions: Homo sapiens, KMS-12-PE
Description: as §4, §5

KMS27 = test: Multiple myeloma cell viability; assay type: cell-based; conditions: KMS-27
Description: as §4, §5

[6] = system: c-MYC expression in L363 xenograft tumors; test: Pharmacodynamic evaluation in L363 subcutaneous xenografts (western blot); assay type: in vivo; conditions: single dose 19 mg/kg or 38 mg/kg IP; tumors harvested 2 and 8 hours; nude mice with L363 xenografts
Description: The capacity of Compound 23 to inhibit c-MYC expression in tumor was evaluated in nude mice bearing subcutaneous xenografts of the human multiple myeloma cell line L363. In this assay, tumors from two tumor-bearing mice were harvested 2 and 8 hours after a single dose of Compound 23 at 19 mg/kg or 38 mg/kg (administered IP).

Row | SMILES | effect on PCR amplification [1] | transcription from exon 1 [2] | transcription from exon 2 [3] | c-Myc protein translation (c-Myc protein) | c-MYC expression / protein translation [4] | viability [5] | G4 binding relative to MYC (RB1, BCL2 G4s) | G4 binding (KRAS, VEGF G4s) | IC50 (ARD) [µM] | IC50 (KMS12PE) [µM] | IC50 (KMS27) [µM] | c-MYC expression levels in tumors compared to vehicle control tumors [6]
1 | Cc1ccc(NC(=O)c2c(C)oc3ccc(O)c(CN4CCCCCC4)c23)cc1 [Compound 1] | no effect | sustained downregulation | unaffected | significantly inhibited | resistant to inhibition of c-Myc protein translation; also recorded: negligible changes | did not alter viability | weaker binding | complete lack of G4 binding | – | – | – | –
2 | Cc1oc2ccc(O)c(CN3CCCCCC3)c2c1C(=O)Nc1ccc(C(F)(F)F)cc1 [Compound 23] | – | – | – | – | – | – | – | – | 5.75 | 5.33 | 5.06 | decreased c-MYC expression levels
